From patent publication US8889874B2, “Imidazolone-chalcone derivatives as potential anticancer agent and process for the preparation thereof” (Council of Scientific and Industrial Research, priority 2010, dated 2014)

Legend:
Type in all cases: cell-based, human
786-0 (renal) = assay: NCI anticancer screen, SRB assay, 48 h
In short: (§1)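 Compounds were tested across fifty three human cancer cell lines from nine tumour types. Each line got a dose-response curve of at least five concentrations at 10-fold dilutions, with continuous drug exposure and sulforhodamine B protein staining to estimate viability or growth.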

A498 (renal) = assay: NCI anticancer screen, SRB assay, 48 h
In short: as §1

[1] = system: A549/ATCC (non-small cell lung); assay: NCI anticancer screen, SRB assay, 48 h
In short: as §1

ACHN (renal) = assay: NCI anticancer screen, SRB assay, 48 h
In short: as §1

CAKI-1 (renal) = assay: NCI anticancer screen, SRB assay, 48 h
In short: as §1

[2] = system: EKVX (non-small cell lung); assay: NCI anticancer screen, SRB assay, 48 h
In short: as §1

[3] = system: HOP-92 (non-small cell lung); assay: NCI anticancer screen, SRB assay, 48 h
In short: as §1

HS 578T (breast) = assay: NCI anticancer screen, SRB assay, 48 h
In short: as §1

[4] = system: K-562 (leukemia cell line); assay: NCI anticancer screen, SRB assay, 48 h
In short: as §1

KM12 (colon) = assay: NCI anticancer screen, SRB assay, 48 h
In short: as §1

MALME-3M (melanoma) = assay: NCI anticancer screen, SRB assay, 48 h; conditions: MALME-3M
In short: as §1

[5] = system: NCI-H226 (non-small cell lung); assay: NCI anticancer screen, SRB assay, 48 h
In short: as §1

[6] = system: NCI-H23 (non-small cell lung); assay: NCI anticancer screen, SRB assay, 48 h
In short: as §1

[7] = system: NCI-H460 (non-small cell lung); assay: NCI anticancer screen, SRB assay, 48 h
In short: as §1

OVCAR-8 (ovarian) = assay: NCI anticancer screen, SRB assay, 48 h
In short: as §1

SF-539 (CNS) = assay: NCI anticancer screen, SRB assay, 48 h
In short: as §1

SK-MEL-28 (melanoma) = assay: NCI anticancer screen, SRB assay, 48 h
In short: as §1

SK-MEL-5 (melanoma) = assay: NCI anticancer screen, SRB assay, 48 h
In short: as §1

SK-OV-3 (ovarian) = assay: NCI anticancer screen, SRB assay, 48 h
In short: as §1

SN12C (renal) = assay: NCI anticancer screen, SRB assay, 48 h
In short: as §1

SNB-19 (CNS) = assay: NCI anticancer screen, SRB assay, 48 h
In short: as §1

SW-620 (colon) = assay: NCI anticancer screen, SRB assay, 48 h
In short: as §1

TD-47D (breast) = assay: NCI anticancer screen, SRB assay, 48 h
In short: as §1

UACC-257 (melanoma) = assay: NCI anticancer screen, SRB assay, 48 h
In short: as §1

Breast cancer cell lines = assay: NCI anticancer screen, SRB assay, panel summary
In short: as §1

CNS cancer cell lines = assay: NCI anticancer screen, SRB assay, panel summary; conditions: CNS panel
In short: as §1

Colon cancer cell lines = assay: NCI anticancer screen, SRB assay, panel summary; conditions: Colon panel
In short: as §1

[8] = system: Leukemia cancer cell lines; assay: NCI anticancer screen, SRB assay, panel summary; conditions: Leukemia panel
In short: as §1

[9] = system: Melanoma cancer cell lines; assay: NCI anticancer screen, SRB assay, panel summary; conditions: Melanoma panel
In short: as §1

[10] = system: Non-small cell lung cancer cell lines; assay: NCI anticancer screen, SRB assay, panel summary
In short: as §1

[11] = system: Ovarian cancer cell lines; assay: NCI anticancer screen, SRB assay, panel summary; conditions: Ovarian panel
In short: as §1

[12] = system: Prostate cancer cell lines; assay: NCI anticancer screen, SRB assay, panel summary
In short: as §1

Renal cancer cell lines = assay: NCI anticancer screen, SRB assay, panel summary
In short: as §1

[13] = 48 h exposure, SRB, read-out: GI50
[14] = log of concentration in mol/L causing 50% inhibition of net cell growth
[15] = log of concentration leading to 50% net cell death
[16] = log of concentration resulting in total inhibition of net cell growth

## COc1ccc(-c2cn(-c3cccc(C(=O)/C=C/c4cc(OC)c(OC)c(OC)c4)c3)c(=O)[nH]2)cc1 [5b, 4-(4-methoxyphenyl)-1-3-[(E)-3-(3,4,5-trimethoxyphenyl)-2-propenoyl]phenyl-2,3-dihydro-1H-2-imidazolone]
786-0 (renal)
  pGI50 (-log of molar concentration causing 50% inhibition of net cell growth): 5.79
786-0 (renal); [13]
  GI50: 1610 nM
A498 (renal)
  pGI50 (-log of molar concentration causing 50% inhibition of net cell growth): 5.38
A498 (renal); [13]
  GI50: 4210 nM
[1]
  pGI50 (-log of molar concentration causing 50% inhibition of net cell growth): 4.93
[1]; [13]
  GI50: 11800 nM
ACHN (renal)
  pGI50 (-log of molar concentration causing 50% inhibition of net cell growth): 5.74
ACHN (renal); [13]
  GI50: 1820 nM
CAKI-1 (renal)
  pGI50 (-log of molar concentration causing 50% inhibition of net cell growth): 5.52
CAKI-1 (renal); [13]
  GI50: 3050 nM
[2]
  pGI50 (-log of molar concentration causing 50% inhibition of net cell growth): 5.38
[2]; [13]
  GI50: 4200 nM
[3]
  pGI50 (-log of molar concentration causing 50% inhibition of net cell growth): 4.83
[3]; [13]
  GI50: 14900 nM
HS 578T (breast)
  pGI50 (-log of molar concentration causing 50% inhibition of net cell growth): 5.47
HS 578T (breast); [13]
  GI50: 3390 nM
[4]
  pGI50 (-log of molar concentration causing 50% inhibition of net cell growth): 5.90
[4]; [13]
  GI50: 1270 nM
KM12 (colon)
  pGI50 (-log of molar concentration causing 50% inhibition of net cell growth): 5.85
KM12 (colon); [13]
  GI50: 1420 nM
MALME-3M (melanoma)
  pGI50 (-log of molar concentration causing 50% inhibition of net cell growth): 5.75
MALME-3M (melanoma); [13]
  GI50: 1790 nM
[5]
  pGI50 (-log of molar concentration causing 50% inhibition of net cell growth): 4.45
[5]; [13]
  GI50: 35200 nM
[6]
  pGI50 (-log of molar concentration causing 50% inhibition of net cell growth): 5.79
[6]; [13]
  GI50: 1630 nM
[7]
  pGI50 (-log of molar concentration causing 50% inhibition of net cell growth): 5.81
[7]; [13]
  GI50: 1560 nM
OVCAR-8 (ovarian)
  pGI50 (-log of molar concentration causing 50% inhibition of net cell growth): 5.60
OVCAR-8 (ovarian); [13]
  GI50: 2530 nM
SF-539 (CNS)
  pGI50 (-log of molar concentration causing 50% inhibition of net cell growth): 5.70
SF-539 (CNS); [13]
  GI50: 2000 nM
SK-MEL-28 (melanoma)
  pGI50 (-log of molar concentration causing 50% inhibition of net cell growth): 5.69
SK-MEL-28 (melanoma); [13]
  GI50: 2030 nM
SK-MEL-5 (melanoma)
  pGI50 (-log of molar concentration causing 50% inhibition of net cell growth): 5.69
SK-MEL-5 (melanoma); [13]
  GI50: 2030 nM
SK-OV-3 (ovarian)
  pGI50 (-log of molar concentration causing 50% inhibition of net cell growth): 5.34
SK-OV-3 (ovarian); [13]
  GI50: 4600 nM
SN12C (renal); SN 12C
  pGI50 (-log of molar concentration causing 50% inhibition of net cell growth): 5.46
SN12C (renal); SN12C, 48 h exposure, SRB, read-out: GI50
  GI50: 3500 nM
SNB-19 (CNS)
  pGI50 (-log of molar concentration causing 50% inhibition of net cell growth): 5.36
SNB-19 (CNS); [13]
  GI50: 4380 nM
SW-620 (colon)
  pGI50 (-log of molar concentration causing 50% inhibition of net cell growth): 6.35
SW-620 (colon); [13]
  GI50: 450 nM
TD-47D (breast)
  pGI50 (-log of molar concentration causing 50% inhibition of net cell growth): 5.42
TD-47D (breast); [13]
  GI50: 3840 nM
UACC-257 (melanoma)
  pGI50 (-log of molar concentration causing 50% inhibition of net cell growth): 5.52
UACC-257 (melanoma); [13]
  GI50: 3040 nM
Breast cancer cell lines
  mean graph midpoint (MG_MID) of Log10 LC50: 4.91
Breast cancer cell lines; Breast panel, log of concentration in mol/L causing 50% inhibition of net cell growth
  mean graph midpoint (MG_MID) of Log10 GI50: 5.61
Breast cancer cell lines; Breast panel, log of concentration resulting in total inhibition of net cell growth
  mean graph midpoint (MG_MID) of Log10 TGI: 4.86
CNS cancer cell lines; [14]
  mean graph midpoint (MG_MID) of Log10 GI50: 5.54
CNS cancer cell lines; [15]
  mean graph midpoint (MG_MID) of Log10 LC50: 4.55
CNS cancer cell lines; [16]
  mean graph midpoint (MG_MID) of Log10 TGI: 5.01
Colon cancer cell lines; [14]
  mean graph midpoint (MG_MID) of Log10 GI50: 5.95
Colon cancer cell lines; [15]
  mean graph midpoint (MG_MID) of Log10 LC50: 5.13
Colon cancer cell lines; [16]
  mean graph midpoint (MG_MID) of Log10 TGI: 5.58
[8]; [14]
  mean graph midpoint (MG_MID) of Log10 GI50: 5.96
[8]; [16]
  mean graph midpoint (MG_MID) of Log10 TGI: 4.00
[9]; [14]
  mean graph midpoint (MG_MID) of Log10 GI50: 5.72
[9]; [15]
  mean graph midpoint (MG_MID) of Log10 LC50: 4.58
[9]; [16]
  mean graph midpoint (MG_MID) of Log10 TGI: 5.25
[10]
  mean graph midpoint (MG_MID) of Log10 LC50: 4.82
[10]; Non-small cell lung panel, log of concentration in mol/L causing 50% inhibition of net cell growth
  mean graph midpoint (MG_MID) of Log10 GI50: 5.30
[10]; Non-small cell lung panel, log of concentration resulting in total inhibition of net cell growth
  mean graph midpoint (MG_MID) of Log10 TGI: 4.66
[11]; [14]
  mean graph midpoint (MG_MID) of Log10 GI50: 5.58
[11]; [15]
  mean graph midpoint (MG_MID) of Log10 LC50: 4.41
[11]; [16]
  mean graph midpoint (MG_MID) of Log10 TGI: 4.83
[12]; [14]
  mean graph midpoint (MG_MID) of Log10 GI50: 5.21
[12]; [16]
  mean graph midpoint (MG_MID) of Log10 TGI: 4.41
Renal cancer cell lines
  mean graph midpoint (MG_MID) of Log10 LC50: 4.46
Renal cancer cell lines; Renal panel, log of concentration in mol/L causing 50% inhibition of net cell growth
  mean graph midpoint (MG_MID) of Log10 GI50: 5.60
Renal cancer cell lines; Renal panel, log of concentration resulting in total inhibition of net cell growth
  mean graph midpoint (MG_MID) of Log10 TGI: 5.12
